The source of these data is patent publication US12486253B2, “Therapeutics for the degradation of mutant BRAF” (C4 THERAPEUTICS, INC., priority 2021, dated 2025).

Like-named read-outs stand apart in the source and are kept apart here.

Usually DC50 stands for the concentration giving 50% degradation. A high value points to a less potent degrader. A word on the Emax: it is the greatest response seen or fitted, relative to the assay's reference.

In this assay the target is BRAF V600E (Homo sapiens, UniProt P15056, V600E). Kind of assay: HiBiT cellular BRAF^V600E degradation assay. Type of assay: cell-based. The settings on record: for DC50: concentration at which 50% of total cellular BRAF^V600E is degraded; for Emax: read-out: HiBit 24 h Emax.
The mark [1] stands for this setting: A375.10 cells, 24 h, residual protein remaining in the cell.

Sequence of BRAF V600E (P15056 whole entry V600E): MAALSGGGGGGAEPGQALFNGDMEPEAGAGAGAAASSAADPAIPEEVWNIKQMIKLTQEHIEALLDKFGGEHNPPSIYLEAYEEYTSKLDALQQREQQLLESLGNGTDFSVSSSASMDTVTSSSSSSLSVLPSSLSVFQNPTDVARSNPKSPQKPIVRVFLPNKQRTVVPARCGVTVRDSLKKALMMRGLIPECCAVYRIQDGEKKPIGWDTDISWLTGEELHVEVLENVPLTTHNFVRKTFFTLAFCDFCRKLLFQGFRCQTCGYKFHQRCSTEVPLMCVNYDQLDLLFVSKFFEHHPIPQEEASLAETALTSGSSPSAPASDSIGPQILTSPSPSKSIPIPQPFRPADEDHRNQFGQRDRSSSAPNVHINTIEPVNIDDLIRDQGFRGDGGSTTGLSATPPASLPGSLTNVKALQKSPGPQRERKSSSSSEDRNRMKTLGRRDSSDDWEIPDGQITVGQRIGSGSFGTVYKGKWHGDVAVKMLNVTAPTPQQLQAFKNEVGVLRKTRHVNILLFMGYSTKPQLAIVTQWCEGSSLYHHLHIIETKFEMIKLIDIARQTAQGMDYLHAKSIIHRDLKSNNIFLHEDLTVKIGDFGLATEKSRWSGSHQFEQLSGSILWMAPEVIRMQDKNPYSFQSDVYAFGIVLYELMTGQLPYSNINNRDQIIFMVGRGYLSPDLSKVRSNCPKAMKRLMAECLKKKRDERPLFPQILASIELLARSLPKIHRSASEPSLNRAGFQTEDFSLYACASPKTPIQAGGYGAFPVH

Turning to `CCN(C)S(=O)(=O)Nc1ccc(F)c(Oc2ccc3ncn(C4COC5(CCN(C(=O)CN6CCC(c7ccc(NC8CCC(=O)NC8=O)cc7F)CC6)CC5)C4)c(=O)c3c2F)c1C#N` (centres unmarked) [Example 51, 3-[6-[2-cyano-3-[[ethyl(methyl)sulfamoyl]amino]-6-fluorophenoxy]-5-fluoro-4-oxoquinazolin-3-yl]-8-[2-[4-[4-[(2,6-dioxopiperidin-3-yl)amino]-2-fluorophenyl]piperidin-1-yl]acetyl]-1-oxa-8-azaspiro[4.5]decane], the half-maximal degradation concentration (DC50) (A375.10 cells, 24 h) stood at 29.6 nM. For the same compound, the Emax under setting [1] worked out at 10.9%.

On to `CCN(C)S(=O)(=O)Nc1ccc(F)c(Oc2ccc3ncn(CCC4CCN(C(=O)CN5CCC(c6ccc(NC7CCC(=O)NC7=O)c(F)c6)CC5)CC4)c(=O)c3c2)c1C#N` (centres unmarked) [Example 3, 6-[2-cyano-3-[[ethyl(methyl)sulfamoyl]amino]-6-fluorophenoxy]-3-[2-[1-[2-[4-[4-[(2,6-dioxopiperidin-3-yl)amino]-3-fluorophenyl]piperidin-1-yl]acetyl]piperidin-4-yl]ethyl]-4-oxoquinazoline], for which the Emax was 14.7%. The same compound showed a DC50 (A375.10 cells, 24 h) of 35.9 nM.

In turn, `CCN(C)S(=O)(=O)Nc1ccc(F)c(Oc2ccc3ncn([C@H]4COC5(CCN(C(=O)CN6CCC(c7ccc(N[C@H]8CCC(=O)NC8=O)cc7F)CC6)CC5)C4)c(=O)c3c2)c1C#N` [Example 43, (3R)-3-[6-[2-cyano-3-[[ethyl(methyl)sulfamoyl]amino]-6-fluorophenoxy]-4-oxoquinazolin-3-yl]-8-[2-[4-[4-[[(3S)-2,6-dioxopiperidin-3-yl]amino]-2-fluorophenyl]piperidin-1-yl]acetyl]-1-oxa-8-azaspiro[4.5]decane] registered a half-maximal degradation concentration (DC50) (A375.10 cells, 24 h) of 23.7 nM. For the same compound, the Emax under setting [1] was 9.95%.

Under “A375.10 cells, 24 h”, `CCN(C)S(=O)(=O)Nc1ccc(F)c(Oc2ccc3ncn([C@H]4COC5(CCN(C(=O)CN6CCC(c7ccc(NC8CCC(=O)NC8=O)cc7F)CC6)CC5)C4)c(=O)c3c2F)c1C#N` (stereo partly drawn) [Example 72, (3R)-3-[6-[2-cyano-3-[[ethyl(methyl)sulfamoyl]amino]-6-fluorophenoxy]-5-fluoro-4-oxoquinazolin-3-yl]-8-[2-[4-[4-[(2,6-dioxopiperidin-3-yl)amino]-2-fluorophenyl]piperidin-1-yl]acetyl]-1-oxa-8-azaspiro[4.5]decane] showed a DC50 of 39.9 nM. For the same compound, under setting [1], the maximal response (Emax) was found to be 8.63%.

On to `CCN(C)S(=O)(=O)Nc1ccc(F)c(Oc2ccc3ncn(C4COC5(CCN(C(=O)CC6(O)CCN(c7ccc(NC8CCC(=O)NC8=O)cc7F)CC6)CC5)C4)c(=O)c3c2)c1C#N` (centres unmarked) [Example 27, 3-[6-[2-cyano-3-[[ethyl(methyl)sulfamoyl]amino]-6-fluorophenoxy]-4-oxoquinazolin-3-yl]-8-[2-[1-[4-[(2,6-dioxopiperidin-3-yl)amino]-2-fluorophenyl]-4-hydroxypiperidin-4-yl]acetyl]-1-oxa-8-azaspiro[4.5]decane], for which it took 15 nM to reach half-maximal degradation (A375.10 cells, 24 h) (DC50). Besides, the Emax under setting [1] amounted to 22.2%.

Compound `CCN(C)S(=O)(=O)Nc1ccc(F)c(Oc2ccc3ncn(-c4ccc(N5CCN(C(=O)CN6CCC(c7ccc(N[C@H]8CCC(=O)NC8=O)cc7F)CC6)CC5)nc4)c(=O)c3c2)c1C#N` [Example 94, 6-[2-cyano-3-[[ethyl(methyl)sulfamoyl]amino]-6-fluorophenoxy]-3-[6-[4-[2-[4-[4-[[(3S)-2,6-dioxopiperidin-3-yl]amino]-2-fluorophenyl]piperidin-1-yl]acetyl]piperazin-1-yl]pyridin-3-yl]-4-oxoquinazoline] registered a DC50 (A375.10 cells, 24 h) of 21.5 nM. Further, under setting [1], the Emax turned out to be 10.5%.

`Cn1nc(C2CCC(=O)NC2=O)c2ccc(C3CCN(CC(=O)N4CCC5(CC4)C[C@@H](n4cnc6ccc(Oc7c(F)ccc(NS(=O)(=O)C8CCCC8)c7C#N)cc6c4=O)CO5)CC3)cc21` (stereo partly drawn) [Example 167, N-[2-cyano-3-[3-[(3R)-8-[2-[4-[3-(2,6-dioxopiperidin-3-yl)-1-methylindazol-6-yl]piperidin-1-yl]acetyl]-1-oxa-8-azaspiro[4.5]decan-3-yl]-4-oxoquinazolin-6-yl]oxy-4-fluorophenyl]cyclopentanesulfonamide]: it took 42.6 nM to reach half-maximal degradation (A375.10 cells, 24 h) (DC50). Moreover, the Emax under setting [1] was determined as 16.5%.
